Assay results: ChEMBL document CHEMBL4387793, “Styrenes from the Seeds of Atalantia monophylla” (J Nat Prod, 2019)

system: not listed separately; assay: Cytotoxicity against human KKU-M156 cells by SRB assay; assay type: functional, cell-based

Row | Compound | IC50 [µM]
1 | COc1cc(OC)c([C@H]2CC[C@H]2c2c(OC)cc(OC)cc2OC)c(OC)c1 | < 10
2 | COc1cc(OC)c(/C=C/[C@H](C)c2c(OC)cc(OC)cc2OC)c(OC)c1 | < 10
3 | COc1cc(OC)c2c(c1)O[C@@H](c1c(OC)cc(OC)cc1OC)C[C@@H]2C | < 10
4 | COc1cc(OC)c2c(c1)O[C@@H](c1c(O)cc(OC)cc1OC)C[C@@H]2C | < 10

system: HepG2; assay: Cytotoxicity against human HepG2 cells by SRB assay; assay type: functional, cell-based

Row | Compound | IC50 [µM]
5 | COc1cc(OC)c([C@H]2CC[C@H]2c2c(OC)cc(OC)cc2OC)c(OC)c1 | < 10
6 | COc1cc(OC)c(/C=C/[C@H](C)c2c(OC)cc(OC)cc2OC)c(OC)c1 | < 10
7 | COc1cc(OC)c2c(c1)O[C@@H](c1c(OC)cc(OC)cc1OC)C[C@@H]2C | < 10
8 | COc1cc(OC)c2c(c1)O[C@@H](c1c(O)cc(OC)cc1OC)C[C@@H]2C | < 10
